Experimental findings from US8293781B2, “Indole derivatives having cPLA2 inhibiting activity and applications and production methods of the same” (Daiichi Sankyo Company, Limited, priority 2007, dated 2012) are described below.

Counter-ions that a name gives are not always drawn.

This assay has as its target T1, cPLA2 crudely purified from the cytoplasm fraction of U937 (Homo sapiens, UniProt P47712).
T1 construct: cPLA2 crudely purified from the cytoplasm fraction of U937; endogenous in cells; host or cells: U937 cells (cytoplasm fraction, crude purification)
T1 sequence (P47712 1-749): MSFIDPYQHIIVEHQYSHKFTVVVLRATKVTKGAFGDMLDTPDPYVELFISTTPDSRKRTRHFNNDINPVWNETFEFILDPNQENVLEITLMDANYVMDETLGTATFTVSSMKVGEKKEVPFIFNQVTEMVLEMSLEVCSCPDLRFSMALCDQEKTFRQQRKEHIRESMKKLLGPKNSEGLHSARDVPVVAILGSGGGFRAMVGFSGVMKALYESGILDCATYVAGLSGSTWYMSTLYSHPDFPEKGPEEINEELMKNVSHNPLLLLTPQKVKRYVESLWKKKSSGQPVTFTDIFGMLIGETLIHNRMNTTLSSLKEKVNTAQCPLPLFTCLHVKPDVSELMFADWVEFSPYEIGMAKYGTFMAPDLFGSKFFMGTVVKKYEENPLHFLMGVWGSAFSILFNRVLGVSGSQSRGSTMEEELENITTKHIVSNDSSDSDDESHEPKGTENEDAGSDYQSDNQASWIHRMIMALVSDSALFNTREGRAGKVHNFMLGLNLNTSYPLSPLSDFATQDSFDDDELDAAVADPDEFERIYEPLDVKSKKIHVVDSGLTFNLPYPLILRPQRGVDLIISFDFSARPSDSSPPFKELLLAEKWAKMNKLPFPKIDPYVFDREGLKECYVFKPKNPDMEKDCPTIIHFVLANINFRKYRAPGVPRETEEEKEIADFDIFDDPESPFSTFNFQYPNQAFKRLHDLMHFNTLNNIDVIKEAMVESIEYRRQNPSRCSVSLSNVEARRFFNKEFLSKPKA
Briefly: Measurement of cPLA2 inhibitory activity (release of [14C]-arachidonic acid from phosphatidyl choline liposome). The assay is classed as biochemical. The following applies: cPLA2 from U937 cytoplasm fraction, [14C]arachidonyl-phosphatidyl choline liposome, 37° C., 60 minutes; read-out: cPLA2 inhibitory activity, 50% inhibiting concentration IC50. The procedure: The cPLA2 inhibitory activity was measured based on the method described in the document [See H. Naraba et al., J. Immunol. 160, 2974-2982 (1998)] and modified in the following way.
A DMSO solution of the present invitation compounds was diluted to 2.5 times the final concentration with the assay buffer (4 mM CaCl2, 2 mM dithiothreitol, 150 mM NaCl, 50 mM HEPES buffer solution (pH7.5)) containing 0.55 mg/ml BSA. To 20 μl of this, cPLA2 crudely purified from the cytoplasm fraction of U937 was added in an amount of 10 μl after dilution by an assay buffer solution containing 0.55 mg/ml BSA. A liposome prepared by ultrasonically treating L-α-1-palmitoyl-2-[14C]arachidonyl-phosphatidyl choline (made by PerkinElmer) and adjusted by the assay buffer solution to a concentration of phosphatidyl choline of 10 μM was added and stirred in by an amount of 20 μl and the mixture was reacted at 37° C. for 60 minutes. The [^14C]-arachidonic acid released due to the reaction was extracted based on the method described in the documents [see V. P. Dole et al., J. Biol. Chem. 235, 2595 (1960)], was added to Lumaplate® (made by PerkinElmer), dried, then measured by Topcount® (made by PerkinElmer). Except for not adding the present invention compounds, the same procedure was performed as the above to obtain the enzyme control. Except for not adding the invention compounds and not adding the enzyme, the same procedure was followed as above to obtain a negative control. The inhibiting activity was expressed as a percent (%) of the value minus the negative control with respect to the value of the enzyme control minus the negative control. From this, the 50% inhibiting concentration (IC50, μM) was calculated.

With `COc1ccccc1-n1cc(CCc2ccccc2)c2cc(CCC(=O)O)ccc21` [Example 109, 3-[1-(2-methoxyphenyl)-3-(2-phenylethyl)-1H-indol-5-yl]propanoic acid 2-amino-2-(hydroxymethyl)propane-1,3-diol salt (1:1)], the IC50 stood at 224 nM.

As to `CCOc1ccc(-n2cc(CCc3ccccc3)c3cc(CCC(=O)O)ccc32)cc1` [Example 112, 3-[1-(4-ethoxyphenyl)-3-(2-phenylethyl)-1H-indol-5-yl]propanoic acid 2-amino-2-(hydroxymethyl)propane-1,3-diol salt (1:1)], the IC50 came out at 15 nM.

Take `O=C(CCc1ccc2c(c1)c(CCc1ccccc1)cn2-c1ccccc1)C(F)(F)F` [Example 113, 1,1,1-trifluoro-4-[1-phenyl-3-(2-phenylethyl)-1H-indol-5-yl]butan-2-one]: the IC50 is 1150 nM.

On to `CCOc1ccc(-n2cc(CCc3ccccc3)c3cc(CCC(=O)N(C)OC)ccc32)cc1` [Example 116, 3-[1-(4-ethoxyphenyl)-3-(2-phenylethyl)-1H-indol-5-yl]-N-methoxy-N-methylpropanamide], for which the IC50 came to 2170 nM.

With `CCOc1ccc(-n2cc(CCc3ccccc3)c3cc(CCC=O)ccc32)cc1` [Example 117], the IC50 was 527 nM.

For the molecule `CCCOc1ccc(-n2cc(CCc3ccccc3)c3cc(CCC(=O)O)ccc32)cc1` [Example 119, 3-[3-(2-phenylethyl)-1-(4-propoxyphenyl)-1H-indol-5-yl]propanoic acid], the IC50 was 7 nM.

Take `CC(C)Oc1ccc(-n2cc(CCc3ccccc3)c3cc(CCC(=O)O)ccc32)cc1` [Example 121, 3-[1-(4-isopropoxyphenyl)-3-(2-phenylethyl)-1H-indol-5-yl]propanoic acid]: the IC50 came out at 7 nM.

For the molecule `COc1ccc(-n2cc(CCc3ccccc3)c3cc(CCC(=O)O)ccc32)cn1` [Example 130, 3-[1-(6-methoxy-3-pyridinyl)-3-(2-phenylethyl)-1H-indol-5-yl]propanoic acid], the IC50 worked out at 113 nM.

Consider `O=C(O)CCc1ccc2c(c1)c(CCc1ccccc1)cn2-c1ccccn1` [Example 132, 3-[3-(2-phenylethyl)-1-(2-pyridinyl)-1H-indol-5-yl]propanoic acid hydrochloride], for which the IC50 was found to be 225 nM.

For `O=C(O)CCc1ccc2c(c1)c(CCc1ccccc1)cn2-c1ccc([N+](=O)[O-])cn1` [Example 134, 3-[1-(5-nitro-2-pyridinyl)-3-(2-phenylethyl)-1H-indol-5-yl]propanoic acid hydrochloride], the IC50 worked out at 211 nM.

On to `Nc1ccc(-n2cc(CCc3ccccc3)c3cc(CCC(=O)O)ccc32)nc1` [Example 135, 3-[1-(5-amino-2-pyridinyl)-3-(2-phenylethyl)-1H-indol-5-yl]propanoic acid], for which the IC50 was 277 nM.

For `CC(=O)Nc1ccc(-n2cc(CCc3ccccc3)c3cc(CCC(=O)O)ccc32)nc1` [Example 140, 3-{1-[5-(acetylamino)-2-pyridinyl]-3-(2-phenylethyl)-1H-indol-5-yl}propanoic acid], the IC50 was found to be 117 nM.

On to `O=C(O)/C=C/c1ccc2c(c1)c(CCc1ccccc1)cn2-c1ccc(OCc2ccccc2)cc1` [Example 144, (2E)-3-{1-[4-(benzyloxy)phenyl]-3-(2-phenylethyl)-1H-indol-5-yl}-2-propenoic acid], for which the IC50 amounted to 42 nM.

For the molecule `O=C(O)CCc1ccc2c(c1)c(CCc1ccccc1)cn2-c1ccccc1[N+](=O)[O-]` [Example 149, 3-[1-(2-nitrophenyl)-3-(2-phenylethyl)-1H-indol-5-yl]propanoic acid], the IC50 was 278 nM.

Consider `Nc1ccccc1-n1cc(CCc2ccccc2)c2cc(CCC(=O)O)ccc21` [Example 151, 3-[1-(2-aminophen 1)-3-(2-phenylethyl)-1H-indol-5-yl]propanoic acid], for which the IC50 stood at 185 nM.

With `CC(=O)Nc1ccccc1-n1cc(CCc2ccccc2)c2cc(CCC(=O)O)ccc21` [Example 153, 3-{1-[2-(acetylamino)phenyl]-3-(2-phenylethyl)-1H-indol-5-yl}propanoic acid], the IC50 worked out at 7960 nM.

As for `O=C(O)CCc1ccc2c(c1)c(CCc1ccccc1)cn2-c1cccc(OCc2ccccc2)c1` [Example 155, 3-{1-[3-(benzyloxy)phenyl]-3-(2-phenylethyl)-1H-indol-5-yl}propanoic acid 2-amino-2-(hydroxymethyl)propane-1,3-diol salt (1:1)], the IC50 came out at 208 nM.

On to `CCOc1cccc(-n2cc(CCc3ccccc3)c3cc(CCC(=O)O)ccc32)c1` [Example 159, 3-[1-(3-ethoxyphenyl)-3-(2-phenylethyl)-1H-indol-5-yl]propanoic acid], for which the IC50 came to 515 nM.

`CCCOc1cccc(-n2cc(CCc3ccccc3)c3cc(CCC(=O)O)ccc32)c1` [Example 161, 3-[3-(2-phenylethyl)-1-(3-propoxyphenyl)-1H-indol-5-yl]propanoic acid]: the IC50 is 813 nM.

Take `CC(C)Oc1cccc(-n2cc(CCc3ccccc3)c3cc(CCC(=O)O)ccc32)c1` [Example 163, 3-[1-(3-isopropoxyphenyl)-3-(2-phenylethyl)-1H-indol-5-yl]propanoic acid]: the IC50 is 1750 nM.

As for `O=C(O)CCc1ccc2c(c1)c(CCc1ccccc1)cn2-c1cccc([N+](=O)[O-])c1` [Example 165, 3-[1-(3-nitrophenyl)-3-(2-phenylethyl)-1H-indol-5-yl]propanoic acid], the IC50 amounted to 154 nM.

On to `Nc1cccc(-n2cc(CCc3ccccc3)c3cc(CCC(=O)O)ccc32)c1` [Example 167, 3-[1-(3-aminophenyl)-3-(2-phenylethyl)-1H-indol-5-yl]propanoic acid], for which the IC50 is 49 nM.

For the molecule `CC(=O)Nc1cccc(-n2cc(CCc3ccccc3)c3cc(CCC(=O)O)ccc32)c1` [Example 169, 3-{1-[3-(acetylamino)phenyl]-3-(2-phenylethyl)-1H-indol-5-yl}propanoic acid], the IC50 turned out to be 205 nM.

Turning to `CC(C)(C)C(=O)Nc1cccc(-n2cc(CCc3ccccc3)c3cc(CCC(=O)O)ccc32)c1` [Example 171, 3-[1-{3-[(2,2-dimethylpropanoyl)amino]phenyl}-3-(2-phenylethyl)-1H-indol-5-yl]propanoic acid], the IC50 was found to be 210 nM.

On to `N#Cc1cccc(-n2cc(CCc3ccccc3)c3cc(CCC(=O)O)ccc32)c1` [Example 173, 3-[1-(3-cyanophenyl)-3-(2-phenylethyl)-1H-indol-5-yl]propanoic acid], for which the IC50 turned out to be 259 nM.

On to `O=Cc1cccc(-n2cc(CCc3ccccc3)c3cc(CCC(=O)O)ccc32)c1` [Example 175, 3-[1-(3-formylphenyl)-3-(2-phenylethyl)-1H-indol-5-yl]propanoic acid], for which the IC50 turned out to be 143 nM.

Consider `O=C(O)CCc1ccc2c(c1)c(CCc1ccccc1)cn2-c1cccc(C(=O)O)c1` [Example 177, 3-[5-(2-carboxyethyl)-3-(2-phenylethyl)-1H-indol-1-yl]benzoic acid], for which the IC50 turned out to be 2520 nM.

As for `CN(C)c1cccc(-n2cc(CCc3ccccc3)c3cc(CCC(=O)O)ccc32)c1` [Example 179, 3-{1-[3-(dimethylamino)phenyl]-3-(2-phenylethyl)-1H-indol-5-yl}propanoic acid], the IC50 came out at 182 nM.

As to `O=C(O)CCc1ccc2c(c1)c(CCc1ccccc1)cn2-c1cccc(Cl)c1` [Example 181, 3-[1-(3-chlorophenyl)-3-(2-phenylethyl)-1H-indol-5-yl]propanoic acid], the IC50 worked out at 138 nM.

As to `O=C(O)CCc1ccc2c(c1)c(CCc1ccccc1)cn2-c1cccc(F)c1` [Example 183, 3-[1-(3-fluorophenyl)-3-(2-phenylethyl)-1H-indol-5-yl]propanoic acid], the IC50 was determined as 70 nM.
